Measurements taken from patent US9434994B2, “Methods for prediction of clinical outcome to epidermal growth factor receptor inhibitors by non-small cell lung cancer patients” (The Regents of the University of Colorado, a body corporate, priority 2004, dated 2016).
“And” between values parts separate entries of the source, which are not always exact repeats. Identical values can stand only once. Like-named read-outs stand apart in the source and are kept apart here.

Tested on: advanced non-small-cell lung cancer patients
[1] = HER2 FISH- and/or EGFR mutation-
[2] = all 85 patients with EGFR mutation and P-Akt
[3] = all 89 patients with EGFR mutation analysis
[4] = all 98 patients with EGFR FISH and P-Akt
[5] = all 98 patients with EGFR IHC and P-Akt
[6] = all 102 patients, Example 1 analysis

Method: Eligibility included histologically confirmed NSCLC patients with measurable, locally advanced or metastatic disease, who had progressed or relapsed after chemotherapy, and patients ineligible for chemotherapy because they were elderly, had poor performance status, or comorbid medical condition. Before trial inclusion, smoking status was assessed and patients were classified as never, former (smoking cessation >6 months prior to trial inclusion), or current smokers (cessation <6 months before trial inclusion or active smoker).
Patients were evaluated for response according to the RECIST criteria (30). Tumor response was assessed by computer tomography scan every two months, with a confirmatory evaluation to be repeated in responding patients at least 4 weeks after the initial determination of response. […] Survival (OS) was calculated from the date of therapy initiation to the date of death or last contact.
Differences between the FISH groups were compared by Fisher's exact test or χ^2 test for qualitative variables and by t-student test or ANOVA for continuous variables. Normality of the distribution was assessed by Kolmogorov-Smirnov test. […] Risk factors associated with survival were evaluated using Cox's proportional-hazards regression model with a step-down procedure (33). Only those variables with significant results in univariate analysis were included in the multivariate analysis. The criteria for variable removal was the likelihood ratio statistic based on the maximum partial likelihood estimated (default p-value=0.10 for removal from the model).
Complete clinical information and tissue blocks were available from 80 out of 106 patients enrolled in the Akt clinical trial (Cappuzzo et al., ibid.), and from an additional 22 patients in the Expanded Access Study who were treated consecutively at the end of the Akt study and followed in the same way as patients in the Akt trial.
Eligibility for both studies included histologically confirmed NSCLC with measurable, locally advanced or metastatic disease, progressing or relapsing after chemotherapy or with medical contraindications for chemotherapy. Patients had performance status ranging from grade 0 to 2. Performance status was defined according to Eastern Cooperative Oncology Group (Oken et al., 1982) and considered grade 0 when the patient was fully active and able to perform all pre-disease activities without restriction, grade 1 when the patient was restricted in physically strenuous activity but ambulatory and able to perform work of a light or sedentary nature, and grade 2 when the patient was ambulatory and capable of all self-care but unable to perform any work activities.
Tumor response was assessed by computer tomography scan after 2 months, with a confirmatory evaluation to be repeated in responders and in patients with stable disease at least 4 weeks after the initial determination of response. […] Survival was calculated from the date of therapy initiation to the date of death or to the date of last contact.
Differences between and among groups were compared using Fisher's exact test or Pearson's chi square test for qualitative variables and using student's t test or analysis of variance for continuous variables. Normality of the distribution was assessed using the Kolmogorov-Smirnov test (Curiel et al., 1990).

COc1cc2ncnc(Nc3ccc(F)c(Cl)c3)c2cc1OCCCN1CCOCC1 [gefitinib]
TTP (HER2 FISH+/EGFR IHC+): 12.3 months | OS (HER2 FISH+/EGFR IHC-): 3.3 months | TTP (HER2 FISH+/EGFR IHC-): 2.3 months | DCR (HER2 FISH+/EGFR mutation+): 87.5% | OR (HER2 FISH+/EGFR mutation+): 87.5% | OS (HER2 FISH+/EGFR mutation+): not reached | TTP (HER2 FISH+/EGFR mutation+): 15.5 months | OR (HER2 FISH+/EGFR mutation-): no patient responded | TTP (HER2 FISH+/EGFR mutation-): 2.3 months | DCR (HER2 FISH-): 33.3% | OR (HER2 FISH-): 6.4% | OS (HER2 FISH-): 8.4 months | TTP (HER2 FISH-): 2.7 months | DCR (HER2 FISH- and/or EGFR FISH-): 33.0% | OR (HER2 FISH- and/or EGFR FISH-): 6.8% | median OS (HER2 FISH- and/or EGFR FISH-): 8.3 months | median TTP (HER2 FISH- and/or EGFR FISH-): 2.6 months | DCR (HER2 FISH- and/or EGFR IHC-): 34.5% | OR (HER2 FISH- and/or EGFR IHC-): 7.1% | OS (HER2 FISH- and/or EGFR IHC-): 8.4 months | TTP (HER2 FISH- and/or EGFR IHC-): 2.6 months | DCR [1]: 31.3% | OR [1]: 5.0% | OS [1]: 8.3 | TTP [1]: 2.6 months | DCR (HER2 FISH-/EGFR FISH+): 30.0% | OR (HER2 FISH-/EGFR FISH+): 10.0% | median OS (HER2 FISH-/EGFR FISH+): 9.3 months | median TTP (HER2 FISH-/EGFR FISH+): 5.3 months | OR (HER2 FISH-/EGFR FISH-): 1.6% | median OS (HER2 FISH-/EGFR FISH-): 7.3 months | median TTP (HER2 FISH-/EGFR FISH-): 2.6 months | OR (HER2 FISH-/EGFR IHC+): 11.1% | OS (HER2 FISH-/EGFR IHC+): 11.3 months | TTP (HER2 FISH-/EGFR IHC+): 4.2 months | DCR (HER2 FISH-/EGFR IHC-): 13.7% | OR (HER2 FISH-/EGFR IHC-): 0% | OS (HER2 FISH-/EGFR IHC-): 5.0 months | TTP (HER2 FISH-/EGFR IHC-): 2.1 months | DCR (HER2 FISH-/EGFR mutation+): 28.5% | OR (HER2 FISH-/EGFR mutation+): 14.2% | OS (HER2 FISH-/EGFR mutation+): 5.7 | TTP (HER2 FISH-/EGFR mutation+): 2.8 months | DCR (HER2 FISH-/EGFR mutation-): 32.2% | OR (HER2 FISH-/EGFR mutation-): 4.8% | Disease Control Rate (Italian Cohort, Table 12): 39% | Median Survival (Italian Cohort, Table 12): 9 (6-11) | Median Time to Progression (Italian Cohort, Table 12): 3 (2-4) | One-YR Survival (Italian Cohort, Table 12): 41% (31-51) | Overall Response (Italian Cohort, Table 12): 13% | Disease Control Rate (P-Akt negative): 22% | response rate (P-Akt negative): 0% | time to progression (P-Akt negative): 2.1 months | Survival (P-Akt positive): 11.4 months | response rate (P-Akt positive): 21% | time to progression (P-Akt positive): 4.2 months | 1-year Cumulative Survival ± SD (adenocarcinoma): 45 ± 7% | Median Survival (adenocarcinoma): 11.3 months | Median Time to Progression (adenocarcinoma): 3.2 months | Objective Response (adenocarcinoma): 8/15% | Median Time to Progression [2]: 2.9 months | Objective Response [2]: 12/14% | 1-year survival [3]: 41 ± 5 | MS [3]: 9.4 mo | OR [3]: 12 (13%) | TTP [3]: 2.9 mo | 1-year Cumulative Survival ± SD [4]: 47 ± 6% | Disease Control Rate [4]: 40/40% | Median Survival [4]: 11.5 months | Median Time to Progression [4]: 4.5 months | Objective Response [4]: 14/14% | MS (median overall survival) (all 98 patients with EGFR IHC): 9.5 mo | OR (objective response) (all 98 patients with EGFR IHC): 14 (14%) | PD (progressive disease) (all 98 patients with EGFR IHC): 58 (59%) | TTP (all 98 patients with EGFR IHC): 2.9 mo | 1-year Cumulative Survival ± SD [5]: 45 ± 6% | Disease Control Rate [5]: 40/40% | Median Survival [5]: 11.3 months | Median Time to Progression [5]: 3.2 months | Objective Response [5]: 14/14% | Complete response (CR) (all 102 patients): 1% | Partial responses (PR) (all 102 patients): 12.7% | % Patients without disease progression at 12 months [6]: 18.6% | Complete and Partial Response [6]: 13.7% and 14% | Disease Control Rate [6]: 39.2% and 39% | Median Time to Progression [6]: 2.9 months | One-year Survival Rate [6]: 45.1% | Progressive Disease [6]: 60.8% | Stable Disease [6]: 25.5% | Median Time to Progression (all 102 patients, Table 1): 2.9 months | Objective Response (all 102 patients, Table 1): 14% and 14/14% | Progressive Disease (all 102 patients, Table 1): 60% and 62/60% | 1-year Cumulative Survival ± SD (bronchioloalveolar): 67 ± 16% | Median Survival (bronchioloalveolar): 16.5 months | Median Time to Progression (bronchioloalveolar): 3.0 months | Objective Response (bronchioloalveolar): 3/33% | Progressive Disease (bronchioloalveolar): 5/56% | 1-year Cumulative Survival ± SD (current smoker): 30 ± 6% | Median Survival (current smoker): 4.5 months | Median Time to Progression (current smoker): 2.3 months | Objective Response (current smoker): 3/6% | Progressive Disease (current smoker): 39/72% | 1-year Cumulative Survival ± SD (female): 48 ± 9% | Median Survival (female): 11.3 months | Median Time to Progression (female): 5.2 months | Progressive Disease (female): 16/46% | median TTP (females, Example 1 analysis): 4.5 months | response rate (former and current smokers): 20.8% | 1-year Cumulative Survival ± SD (former smoker): 55 ± 9% | Median Time to Progression (former smoker): 3.6 months | Objective Response (former smoker): 5/15% | Progressive Disease (former smoker): 17/51% | 1-year Cumulative Survival ± SD (large cell): 0 ± 0% | Median Survival (large cell): 0.8 months | Median Time to Progression (large cell): 0.8 months | Objective Response (large cell): 0% | Progressive Disease (large cell): 2/100% | Median Time to Progression (male): 2.7 months | Objective Response (male): 6.0% and 4/6% | median TTP (males, Example 1 analysis): 2.7 months | 1-year Cumulative Survival ± SD (never smoker): 47 ± 14% | Median Survival (never smoker): 10.9 months | Median Time to Progression (never smoker): 5.3 months | Progressive Disease (never smoker): 6/40% | Median Time to Progression (performance status 0): 2.6 months | Objective Response (performance status 0): 5/10% | Progressive Disease (performance status 0): 32/65% | 1-year Cumulative Survival ± SD (performance status 1): 47 ± 8% | Median Survival (performance status 1): 10.9 months | Median Time to Progression (performance status 1): 4.2 months | Progressive Disease (performance status 1): 22/54% | 1-year Cumulative Survival ± SD (performance status 2): 22 ± 13% | Median Survival (performance status 2): 2.7 months | Median Time to Progression (performance status 2): 2.1 months | Objective Response (performance status 2): 2/17% | 1-year Cumulative Survival ± SD (squamous cell): 22 ± 9% | Median Time to Progression (squamous cell): 2.2 months | Objective Response (squamous cell): 2/8% | 1-year Cumulative Survival ± SD (stage III): 36 ± 13% | Median Time to Progression (stage III): 6.0 months | Objective Response (stage III): 1/7% | Median Time to Progression (stage IV): 2.7 months | Objective Response (stage IV): 13/15% | 1-year Cumulative Survival ± SD (undifferentiated): 45 ± 15% | Median Time to Progression (undifferentiated): 2.1 months | Objective Response (undifferentiated): 1/9%
